Assay results taken from publication PMC6764326, “The Trials and Tribulations of Structure Assisted Design of KCa Channel Activators” (Frontiers in Pharmacology, 2019).

Assays:
[1] = design: method as in Coleman et al., 2014; conditions: ref Coleman et al., 2014, cited from earlier work; for KCa2 channel mediated side effects on CNS and heart rate: mice; for Blood pressure lowering: normotensive and hypertensive mice
[2] = test system: KCa3.1 over KCa2 channels; conditions: second generation activators; ref Coleman et al., 2014; cited from earlier work
KCa3.1 = biological target: T1, KCa3.1 (Homo sapiens, UniProt O15554+P0DP23); test: QPatch automated whole-cell patch-clamp screen, 10 µM activator normalized to 10 µM SKA-31; assay type: cell-based; conditions: 250 nM free internal Ca2+, HEK cells stably expressing channel
T1 construct: expressed in transfected cells
Procedure: (§1) All experiments were performed in either the inside-out or the whole-cell configuration of the patch-clamp technique on either transiently transfected CHO cells or Human Embryonic Kidney (HEK) cell lines stably expressing hKCa3.1 or hKCa2.2 ([Sankaranarayanan et al., 2009]). All cells were cultured in Dulbecco’s modified Eagle’s medium supplemented with 10% fetal calf serum. Wild-type (WT) and mutant hKCa3.1 channel constructs were transfected using FuGENE 6 transfection reagent (Promega, Madison, WI) in OptiMEM reduced-serum medium (Life Technologies, Benicia, CA) for manual patch-clamp experiments or via electroporation (Nucleofector 2b and Lonza Amaxa Cell Line Nucleofector Kit T) according to the manufacturer’s instructions for automated electrophysiology.
(§2) The procedure for performing automated whole-cell KCa channel recordings on a QPatch-16 automated electrophysiology platform (Sophion Biosciences) was previously described in detail by our laboratory ([Jenkins et al., 2013]). For the current study we used the solutions described above with disposable 16-channel planar patch chip plates (QPlates; patch hole diameter […], resistance 2.00–0.02MΩ, Sophion Biosciences, Woburn, MA). Cell positioning and sealing parameters were set as follows: positioning pressure -70 mbar, resistance increase for success 750%, minimum seal resistance 0.1 GΩ, holding potential -0 mV, holding pressure -20 mbar. To avoid rejection of cells with large KCa3.1 currents, the minimum seal resistance for whole-cell requirement was lowered to 0.001 GΩ. Access was obtained with the following sequence: 1) suction pulses in 29 mbar increments from -250 mbar to -453 mbar; 2) a suction ramp of an amplitude of -450 mbar; 3) -400 mV voltage zaps of 1 ms duration. Following establishment of the whole-cell configuration, cells were held at -80 mV and KCa currents elicited by a voltage protocol that held at -80 mV for 20 ms, stepped to -120 mV for 20 ms, ramped from -120 to + 40 mV in 200 ms, and then stepped back to -120 mV for 20 ms. This pulse protocol was applied every 10 s. KCa activator dilutions were prepared freshly (within 5 min of the initiation of the QPatch) with Ringer’s solution from 10 mM stock solutions in dry DMSO. Final DMSO concentrations never exceeded 1%. Glass vial inserts (to avoid adsorption) were filled with 400 µL of compound solution and placed into the insert base plate for use in the QPatch assay. Exemplary QPatch raw current traces and plots of slope conductance versus time are shown in Supplementary Figure 3 . For each compound we typically used 12 consecutive liquid periods Break-in, 3 saline additions to stabilize the current, 2 additions of test compound at 10 µM, 2 saline washes, 2 additions of SKA-31 at 10 µM, followed by 2 more saline washes. In each liquid period 10 pulse protocols were run.
(§3) The newly synthesized compounds were tested by automated whole-cell patch-clamp for their ability to activate KCa2.2 and KCa3.1 channels stably expressed in HEK cells. […] A promising compound would ideally do both. […] We started by comparing the effect of the SKA-74 derivatives to SKA-31 ( Figure 4A ).
(§4) Figure 4 Whole-cell KCa3.1 and KCa2.2 responses elicited by 10 µM of activator and normalized to 10 µM of the mixed activator SKA-31. Experiments were performed by automated electrophysiology with 250 nM of free internal Ca^2+. In each experiment the new activator was tested first, washed out with 2 saline additions, and then SKA-31 was applied as positive control for normalization of the response. (A) Screening of SKA-74 derivatives. (B) Screening of SKA-75 and SKA-76 derivatives. The bar graphs show means ± SD of the slope conductance measured between −85 and −65 mV (n = 2–7 cells). Chemical structures are shown below the bar graphs.
(§5) Figure 5 Whole-cell KCa3.1 and KCa2.2 responses elicited by 10 µM of activator and normalized to 10 µM of the mixed activator SKA-31. […]

KCa2.2 = biological target: T2, KCa2.2 (Homo sapiens, UniProt P0DP23+Q9H2S1); test: as above; assay type: cell-based; conditions: 250 nM free internal Ca2+, HEK cells stably expressing channel
T2 construct: expressed in transfected cells
Procedure: as §1, §2, §3, §4, §5

Row | Structure (SMILES) | KCa2 channel mediated side effects on CNS and heart rate [1] | Blood pressure lowering [1] | Selectivity for KCa3.1 [2] | melting point [°C] | Whole-cell KCa3.1 response elicited by 10 µM of activator normalized to 10 µM SKA-31 (described in words) (KCa3.1) | Whole-cell KCa2.2 response elicited by 10 µM of activator normalized to 10 µM SKA-31 (described in words) (KCa2.2)
1 | Cc1cc2sc(N)nc2c2ccccc12 [SKA-111, 5-methylnaphtho[1,2-d]thiazol-2-amine] | avoiding KCa2 channel mediated side effects on the CNS and on heart rate | efficacious in lowering blood pressure |  |  |  | 
2 | Cc1cc2nc(N)oc2c2ccccc12 [SKA-121, 5-methylnaphtho[2,1-d]oxazol-2-amine] | avoiding KCa2 channel mediated side effects on the CNS and on heart rate | efficacious in lowering blood pressure | 40–100 fold |  |  | 
3 | c1ccc(Nc2nc3c(ccc4ccccc43)s2)cc1 [SKA-146, N-Phenylnaphtho[1,2-d]thiazol-2-amine] |  |  |  | 140 to 141 | less potent than SKA-31 | less potent than SKA-31
4 | CNc1nc2c(ccc3ccccc32)s1 [SKA-158, N-Methylnaphtho[1,2-d]thiazol-2-amine] |  |  |  | 187 to 188 | preserved it again on KCa3.1 | abolished activity on KCa2.2
5 | Cc1ccc2cccc(-c3csc(N)n3)c2c1 [SKA-193, 4-(7-Methylnaphthalen-1-yl)thiazol-2-amine] |  |  |  | 154 to 156 | somewhat increased KCa channel activating potency | somewhat increased KCa channel activating potency
6 | Cc1ccc2cc(-c3csc(N)n3)ccc2c1 [SKA-198, 4-(6-Methylnaphthalen-2-yl)thiazol-2-amine] |  |  |  | 178 to 179 | somewhat increased KCa channel activating potency | somewhat increased KCa channel activating potency
7 | Cc1nc2c(ccc3c([N+](=O)[O-])cccc32)s1 [SKA-215, 2-Methyl-6-nitronaphtho[1,2-d]thiazole] |  |  |  | 178 to 179 | inactive | inactive
8 | Nc1nc(-c2ccc(-c3csc(N)n3)cc2)cs1 [SKA-230, 4,4'-(1,4-Phenylene)bis(thiazol-2-amine)] |  |  |  | 350 | completely devoid of activity | completely devoid of activity
9 | FC(F)(F)c1cccc(Nc2nc(-c3cccc4ccccc34)cs2)c1 [SKA-251, 4-(Naphthalen-1-yl)-N-(3-(trifluoromethyl)phenyl)thiazol-2-amine] |  |  |  | 135 | completely abolished activity | completely abolished activity
10 | c1ccc(Nc2nc(-c3cccc4ccccc34)cs2)nc1 [SKA-258, 4-(Naphthalen-1-yl)-N-(pyridin-2-yl)thiazol-2-amine] |  |  |  | 225 | completely abolished activity | completely abolished activity
11 | Cc1ccc(-c2csc(Nc3cccc(C(F)(F)F)c3)n2)cc1 [SKA-260, 4-(p-Tolyl)-N-(3-(trifluoromethyl)phenyl)thiazol-2-amine] |  |  |  | 108 | completely devoid of activity | completely devoid of activity
12 | FC(F)(F)c1ccc(Nc2nc(-c3ccccc3)cs2)cc1 [SKA-268, 4-Phenyl-N-(4-(trifluoromethyl)phenyl)thiazol-2-amine] |  |  |  | 153 | completely devoid of activity | completely devoid of activity
13 | Nc1nc2c(cc([N+](=O)[O-])c3ccccc32)s1 [SKA-321, 5-Nitronaphtho[1,2-d]thiazol-2-amine] |  |  |  | 289 to 291 | drastically reduced potency | drastically reduced potency
14 | CCN(CC)c1cc2sc(N)nc2c2ccccc12 [SKA-330, N^5,N^5-Diethylnaphtho[1,2-d]thiazole-2,5-diamine] |  |  |  | 119 to 121 | somewhat reduced potency | somewhat reduced potency
